Patent US9930888B2, “Composition” (Conopco, Inc., priority 2013, dated 2018)

Columns and labels:
S. epidermidis = test: bacterial respiration of S. epidermidis suspension in microplate; type: cell-based; settings: lactam pre-blended with hydrotrope, added to remainder of composition, diluted to 11.5 ppm and 0.575 ppm; 20 hours
Protocol: Test samples were diluted in sterile water to achieve a 11.5 ppm level of lactam. Dilute solution (80 μl) was added to a S. epidermidis suspension (20 μl) of bacteria at a concentration of 8 logs in a microplate. Growth media (100 μl tryptone soya broth) was added to each well of the microplate and incubated for 20 hours. Bacterial respiration was measured every 30 minutes and the results were: • A—lactam+hydrotrope only (respiration of surviving bacteria detected ˜4-5 h) • B—lactam added directly to base formulation (which contains MPG)—no pre-mixing prior to addition (respiration of surviving bacteria detected 4-5 hrs) • C—lactam pre-mixed with hydrotrope and then added to base formulation (respiration of surviving bacteria not detected—20 hrs is max detection time) • D—hydrotrope added to base formulation (respiration of surviving bacteria detected 3-4 hrs). The example below is from data obtained when pre-blending lactams with hydrotrope before adding to the remainder of the composition, and diluting to 11.5 ppm and 0.575 ppm in sterile water in order to assess efficacy against S. epidermidis suspension Dilute solution (80 μl) was added to a S. epidermidis suspension (20 μl) of bacteria at a concentration of 8 logs in a microplate. Growth media (100 μl tryptone soya broth) was added to each well of the microplate and incubated for 20 hours. Bacterial respiration was measured every 30 minutes. Data of the test samples were then compared to un-treated cell suspensions (sterile water added instead of test samples) and percent inhibition calculated.

[1] = appearance of lactam solution when added to base formulation at 5%; type: physicochemical; settings: 3% lactam in PEG-60 Hydrogenated Castor Oil; Magnetic stirring 1 hour
Description: We ensured the lactam solutions were fully uniform through constant mechanical agitation (to avoid the settling of any unsolubilised lactam material) and added them to base using slow speed stirring to incorporate them without generating aeration.

[2] = solubility of lactam in candidate solubilisers (magnetic stirring or ultrasonic mixing); type: physicochemical
Protocol: An Ultrasonic mixer was used to obtain determine solubility.
We used a Hielscher UP200S (200W) Sonic Tip on batches of 5-20 ml. We sonicated for up to 60 minutes.
We then tested the candidate solubilisers with 1% lactam, both with 72 hours high speed magnetic stirring (with held temperature of ˜500 in the cases of solubilisers that solidify alone at room temperature) and also 20 minutes Sonication.
In each case we incorporated the lactam powder into the solubilisers (at the levels indicated in the below table) using high speed stirring to avoid lumps from forming. Once the powder was added, the described mixing method (either continued high speed stirring or Ultrasonic mixing) commenced. In the cases of Sorbitan Oleate and Polysorbate-60, we applied initial heating to approx. 500 to ensure the solubilisers were fully liquid prior to commencing addition of the lactam. Both of these materials are non-flowing at room temperature. PEG-40 Hydrogenated Castor required initial heating to ˜350 to ensure complete fluidity prior to commencing.

[3] = as above; type: physicochemical; settings: 1% lactam in PEG-40 Hydrogenated Castor Oil; Magnetic stirring 24 hours

C=C1NC(=O)C=C1c1ccccc1 [5-methylene-4-phenyl-1H-pyrrol-2(5H)-one]
lactam solubilised.: Observations of solvent solution ([2]; 2.1% lactam in PEG-40 Hydrogenated Castor Oil, 60 minutes sonication, temp reached 110 C., very dark colour)
75% of lactam: Observations of solvent solution: % of lactam solubilised ([2]; 4.2% lactam in PEG-40 Hydrogenated Castor Oil, 60 minutes sonication, temp reached 80 C., very dark colour) | Observations of solvent solution: % of lactam solubilised ([2]; 4.2% lactam in PEG-40 Hydrogenated Castor Oil, 60 minutes sonication, temp reached 110 C., very dark colour)
No solubility: Observations of solvent solution ([2]; 1% lactam in 3-Methoxy-3-methyl-1-butanol, Magnetic stirring 72 hours) | Observations of solvent solution ([2]; 1% lactam in Diglycerin, 20 minutes sonication, temp reached 60-70 C.) | Observations of solvent solution ([2]; 1% lactam in Diglycerin, Magnetic stirring 72 hours) | Observations of solvent solution ([2]; 1% lactam in Isopentyldiol, Magnetic stirring 72 hours) | Observations of solvent solution ([2]; 3% lactam in Diglycerin, Magnetic stirring 1 hour) | Observations of solvent solution ([2]; 3% lactam in Hexylene Glycol, Magnetic stirring 1 hour) | Observations of solvent solution ([2]; 3% lactam in Isopentyldiol, Magnetic stirring 1 hour) | Observations of solvent solution ([2]; 3% lactam in MMB, Magnetic stirring 1 hour) | Observations of solvent solution ([2]; 3% lactam in Pentylene Glycol, Magnetic stirring 1 hour)
virtually opaque: colour change of lactam solution ([2]; when the temperature reached 65 C, Polysorbate-20 and PEG-40 Hydrogenated Castor Oil variants only)
~5% of lactam: Observations of solvent solution: % of lactam solubilised ([2]; 1% lactam in 3-Methoxy-3-methyl-1-butanol, 20 minutes sonication, temp reached 60-70 C., forced) | Observations of solvent solution: % of lactam solubilised ([2]; 1% lactam in Isopentyldiol, 20 minutes sonication, temp reached 60-70 C., forced) | Observations of solvent solution: % of lactam solubilised ([2]; 1% lactam in Pentylene Glycol, 20 minutes sonication, temp reached 60-70 C.) | Observations of solvent solution: % of lactam solubilised ([2]; 1% lactam in Pentylene Glycol, Magnetic stirring 72 hours) | Observations of solvent solution: % of lactam solubilised ([2]; 3% lactam in Dipropylene Glycol, Magnetic stirring 1 hour) | Observations of solvent solution: % of lactam solubilised ([2]; 3% lactam in Sisterna SP30-C, Magnetic stirring 1 hour) | Observations of solvent solution: % of lactam solubilised ([2]; 3% lactam in Sisterna SP50-C, Magnetic stirring 1 hour) | Observations of solvent solution: % of lactam solubilised ([2]; 3% lactam in Sisterna SP70-C, Magnetic stirring 1 hour) | Observations of solvent solution: % of lactam solubilised ([2]; 3% lactam in Sorbitan Oleate, Magnetic stirring 1 hour, 50 C.)
dark brown colour: colour change of lactam solution ([2]; when samples exceeded 50 C)
~60-70% of lactam: Observations of solvent solution: % of lactam solubilised ([2]; 3% lactam in Polysorbate 20, 60 minutes sonication, temp reached 90 C.) | Observations of solvent solution: % of lactam solubilised ([2]; 4.2% lactam in Polysorbate 20, 60 minutes sonication, temp reached 90 C.)
82.5%: Result (inhibition of bacterial respiration versus water control) (S. epidermidis)
50% of lactam: Observations of solvent solution: % of lactam solubilised ([2]; 4.2% lactam in PEG-40 Hydrogenated Castor Oil, 20 minutes sonication, temp reached 60-70 C., very dark colour)
90% of lactam: Observations of solvent solution: % of lactam appeared to solubilise ([2]; 2.1% lactam in PEG-40 Hydrogenated Castor Oil, 20 minutes sonication, temp reached 80 C., small amount of 'burnt' spots visible) | Observations of solvent solution: % of lactam solubilised ([2]; 2.1% lactam in Polysorbate 20, 60 minutes sonication, temp reached 80 C.) | Observations of solvent solution: % of lactam solubilised ([2]; 2.1% lactam in Polysorbate 20, 60 minutes sonication, temp reached 90-100 C.)
~95% of lactam: Observations of solvent solution: % of lactam solubilised ([2]; 1% lactam in Polysorbate 20, Magnetic stirring 72 hours) | Observations of solvent solution: % of lactam solubilised ([2]; 1.5% lactam in Polysorbate 20, 60 minutes sonication, temp reached 80-90 C., dark brown colour)
~90% of lactam: Observations of solvent solution: % of lactam solubilised ([2]; 1% lactam in PEG-40 Hydrogenated Castor Oil, Magnetic stirring 72 hours) | Observations of solvent solution: % of lactam solubilised ([2]; 2.1% lactam in Polysorbate 20, 20 minutes sonication, temp reached 60-70 C., dark colour formed)
~25% of lactam: Observations of solvent solution: % of lactam solubilised ([2]; 1% lactam in PEG-60 Hydrogenated Castor Oil, 20 minutes sonication, temp reached 60-70 C.) | Observations of solvent solution: % of lactam solubilised ([2]; 1% lactam in PEG-60 Hydrogenated Castor Oil, Magnetic stirring 72 hours at 50 C.) | Observations of solvent solution: % of lactam solubilised ([2]; 1% lactam in Polysorbate 60, 20 minutes sonication, temp reached 60-70 C.) | Observations of solvent solution: % of lactam solubilised ([2]; 1% lactam in Polysorbate 60, Magnetic stirring 72 hours at 50 C.) | Observations of solvent solution: % of lactam solubilised ([2]; 1% lactam in Polysorbate 80, 20 minutes sonication, temp reached 60-70 C.) | Observations of solvent solution: % of lactam solubilised ([2]; 1% lactam in Polysorbate 80, Magnetic stirring 72 hours at 50 C.) | Observations of solvent solution: % of lactam solubilised ([2]; 1% lactam in Sisterna SP30-C, 20 minutes sonication, temp reached 60-70 C.) | Observations of solvent solution: % of lactam solubilised ([2]; 1% lactam in Sisterna SP30-C, Magnetic stirring 72 hours at 50 C.) | Observations of solvent solution: % of lactam solubilised ([2]; 1% lactam in Sisterna SP50-C, 20 minutes sonication, temp reached 60-70 C.) | Observations of solvent solution: % of lactam solubilised ([2]; 1% lactam in Sisterna SP50-C, Magnetic stirring 72 hours at 50 C.) | Observations of solvent solution: % of lactam solubilised ([2]; 1% lactam in Sisterna SP70-C, 20 minutes sonication, temp reached 60-70 C.) | Observations of solvent solution: % of lactam solubilised ([2]; 1% lactam in Sisterna SP70-C, Magnetic stirring 72 hours at 50 C.) | Observations of solvent solution: % of lactam solubilised ([2]; 3% lactam in PEG-40 Hydrogenated Castor Oil, Magnetic stirring 1 hour) | Observations of solvent solution: % of lactam solubilised ([2]; 3% lactam in Polysorbate 20, Magnetic stirring 1 hour) | Observations of solvent solution: % of lactam solubilised ([2]; 4.2% lactam in PEG-40 Hydrogenated Castor Oil, Magnetic stirring 24 hours) | Observations of solvent solution: % of lactam solubilised ([2]; 4.2% lactam in PEG-40 Hydrogenated Castor Oil, Magnetic stirring 48 hours) | Observations of solvent solution: % of lactam solubilised ([2]; 4.2% lactam in Polysorbate 20, Magnetic stirring 24 hours) | Observations of solvent solution: % of lactam solubilised ([2]; 4.2% lactam in Polysorbate 20, Magnetic stirring 48 hours) | Observations of solvent solution: % of lactam solubilised ([2]; PEG-40 Hydrogenated Castor Oil table: 3% lactam, Magnetic stirring 1 hour) | Observations of solvent solution: % of lactam solubilised ([2]; Polysorbate 20 table: 3% lactam, Magnetic stirring 1 hour)
~50% of lactam: Observations of solvent solution: % of lactam solubilised ([2]; 1.5% lactam in Polysorbate 20, Magnetic stirring 48 hours) | Observations of solvent solution: % of lactam solubilised ([2]; 2.1% lactam in PEG-40 Hydrogenated Castor Oil, Magnetic stirring 24 hours) | Observations of solvent solution: % of lactam solubilised ([2]; 2.1% lactam in PEG-40 Hydrogenated Castor Oil, Magnetic stirring, heated to 50 C. 8 hours) | Observations of solvent solution: % of lactam solubilised ([2]; 2.1% lactam in Polysorbate 20, Magnetic stirring 24 hours) | Observations of solvent solution: % of lactam solubilised ([2]; 2.1% lactam in Polysorbate 20, Magnetic stirring, heated to 50 C. 8 hours) | Observations of solvent solution: % of lactam solubilised ([2]; 3% lactam in Polysorbate 20, 20 minutes sonication, temp reached 60-70 C.) | Observations of solvent solution: % of lactam solubilised ([2]; 4.2% lactam in Polysorbate 20, 20 minutes sonication, temp reached 60-70 C.)
~99% of lactam: Observations of solvent solution: % of lactam solubilised ([2]; 1% lactam in PEG-40 Hydrogenated Castor Oil, Magnetic stirring 72 hours with temp. at 50 C.)
~75% of lactam: Observations of solvent solution: % of lactam solubilised ([2]; 1% lactam in Polysorbate 20, Magnetic stirring 24 hours) | Observations of solvent solution: % of lactam solubilised ([2]; 1.5% lactam in Polysorbate 20, 20 minutes sonication, temp reached 60-70 C.) | Observations of solvent solution: % of lactam solubilised ([2]; 1.5 lactam in Polysorbate 20, Magnetic stirring, heated to 50 C. 72 hours) | Observations of solvent solution: % of lactam solubilised ([2]; 2.1% lactam in PEG-40 Hydrogenated Castor Oil, Magnetic stirring 48 hours) | Observations of solvent solution: % of lactam solubilised ([2]; 2.1% lactam in Polysorbate 20, Magnetic stirring 48 hours) | Observations of solvent solution: % of lactam solubilised ([2]; 2.1% lactam in Polysorbate 20, Magnetic stirring, heated to 50 C. 72 hours) | Observations of solvent solution: % of lactam solubilised ([2]; 3% lactam in PEG-40 Hydrogenated Castor Oil, 20 minutes sonication, temp reached 60-70 C.) | Observations of solvent solution: % of lactam solubilised ([2]; 3% lactam in PEG-40 Hydrogenated Castor Oil, 60 minutes sonication, temp reached 80 C.) | Observations of solvent solution: % of lactam solubilised [3]
~10% of lactam: Observations of solvent solution: % of lactam solubilised ([2]; 3% lactam in PEG-60 Hydrogenated Castor Oil, Magnetic stirring 1 hour) | Observations of solvent solution: % of lactam solubilised ([2]; 3% lactam in Polysorbate 60, Magnetic stirring 1 hour, 50 C.) | Observations of solvent solution: % of lactam solubilised ([2]; 3% lactam in Polysorbate 80, Magnetic stirring 1 hour)
Cloudy in solution: Observations when added to base @ 5% [1]
≤ 25% solubilised).: Observations of solvent solution: % of lactam solubilised ([2]; 4.2% lactam in PEG-40 Hydrogenated Castor Oil, initially stirred for 2, 4 and 6 hours) | Observations of solvent solution: % of lactam solubilised ([2]; 4.2% lactam in Polysorbate 20, initially stirred for 2, 4 and 6 hours)
